Source: patent publication US9969771B2, “Tetrapeptide having effect of inhibiting VEGF-induced angiogenesis and use thereof” (AVIXGEN INC., priority 2015, dated 2018)
Entries after “also recorded” stand apart in the source; their conditions may differ. Where a SMILES comes first, the peptide text is derived from it.

Key:
HUVECs [1] = assay: HUVEC tube formation on Matrigel; type: cell-based, human
Experimental: Tube formation of HUVECs was examined using growth factor-reduced Matrigel (hereinafter, referred to as “Matrigel”). 250 μl of Matrigel (10 mg protein/ml) was placed in a 24-well plate to allow polymerization for 30 minutes at 37° C. […] The tube formation was examined under a reverse phase-contrast microscope, and visualized with Image-Pro Plus version 4.5 (Media Cybernetics, San Diego, Calif.). Five samples were randomly selected to measure and quantify a length of the tube formed above.

ERK = assay: Western blot, ERK phosphorylation in HUVECs; type: cell-based, human
Experimental: (§1) Cells were lyzed in RIPA buffer, and 50 μg of proteins were isolated by SDS-PAGE and then transferred to a PVDF membrane. The membrane was reacted with an antibody with respect to a target protein for 2 hours. The membrane was washed twice and reacted with a horseradish peroxidase-conjugated antibody, and then an amount of the target proteins was assessed with an enhanced chemiluminescence system.

NO production in HUVECs = NO production in HUVECs (DAF-FM diacetate); type: cell-based, human; details: peptide 0.15 nM, VEGF 10 ng/ml
Experimental: An NO amount produced in HUVECs was evaluated with DAF-FM diacetate. HUVECs were reacted with peptides (0.15 nM) and VEGF (10 ng/ml) for 4 hours, and incubated with DAF-FM diacetate (5 μM) in a CO2 constant temperature incubator, and the amount of NO produced in the cells was measured under a confocal microscope.

[2] = system: VEGF-A-induced angiogenesis; assay: Matrigel implantation, intravital fluorescence microscopy; type: in vivo, C57BL/6J mouse; details: mouse, RLYE 1.5 nM, VEGF 100 ng
Experimental: Formation of new blood vessels was examined by intravital fluorescence microscopy. A C57BL/6J mouse was anesthetized, and then a titanium-made imaging window was installed between the skin and an abdominal wall by surgery. 100 μl of Matrigel containing RLYE (SEQ ID NO: 2) (1.5 nM) alone or in combination with VEGF (100 ng) was injected into an inner space between the skin and abdominal walls of the window. Four days later, 50 μl of dextran (MW 250 kDa) labeled with 25 mg/ml of FITC was injected into the caudal vein, and then formation of new blood vessels was observed under a Zeiss Axiovert 200M microscope (Carl Zeiss). A vascular length density of the FITC-labeled dextran-perfuse blood vessels per observation area (mm/mm2) was calculated.

p38 = assay: Western blot, p38 activation in VEGF-A-stimulated HUVECs; type: cell-based, human; details: HUVECs stimulated with VEGF-A
Experimental: as §1

Src = assay: Western blot, Src phosphorylation in VEGF-A-stimulated HUVECs; type: cell-based, human; details: HUVECs stimulated with VEGF-A
Experimental: as §1

FAK = assay: Western blot, FAK phosphorylation in VEGF-A-stimulated HUVECs; type: cell-based, human; details: HUVECs stimulated with VEGF-A
Experimental: as §1

Akt = assay: Western blot, Akt phosphorylation in VEGF-A-stimulated HUVECs; type: cell-based, human; details: HUVECs stimulated with VEGF-A
Experimental: as §1

HUVECs [3] = assay: Confocal microscopy of FITC-RLYE binding to HUVECs; design: species or system human
Experimental: HUVECs were incubated on a cover glass coated with 2% gelatin, and then incubated with FITC-RLYE (SEQ ID NO: 2) (100 ng/ml) after being treated with VEGF-A (10 ng/ml) for 30 minutes or not treated. The cells were fixed in 3.7% formaldehyde for 30 minutes, treated with 0.2% TritonX-100-containing PBS, and reacted with a 3% goat serum and 0.05% Tween-20-containing PBS blocking solution. The cells were reacted with a PECAM-1 antibody at room temperature for 2 hours, washed with PBS, and reacted with a TRITC-conjugated secondary antibody at room temperature for 90 minutes. Samples were observed under a confocal microscope.

VEGFR-2 [4] = target: T1, VEGFR-2 (Homo sapiens, UniProt P35968); assay: Surface plasmon resonance (SPR) assay; type: binding; details: rhVEGFR-2 fixed on CM5 chip
Experimental: Binding dynamics and affinity of RLYE (SEQ ID NO: 2) to rhVEGFR-2 were evaluated with BIAcore AB (Sweden). A carboxymethylated dextran biosensor chip (CM5, BIAcore AB) was activated with 1-ethyl-3-(3-dimethylaminopropyl)carbodiimide and N-hydroxysuccinimide according to the manufacturer's manual. The rhVEGFR-2 (1 ng/μl, 10 mM Hepes, 150 mM NaCl, 3 mM EDTA, 0.005% Tween-20-containing HBS-EP buffer) was injected over the activated CM5 chip for fixation. Various concentrations of an RLYE (SEQ ID NO: 2) solution was injected over the rhVEGFR-2-fixed center chip with a flow rate of 25 μl/min, and binding and non-binding characteristics between RLYE (SEQ ID NO: 2) and the rhVEGFR-2 were analyzed. The peptide bonds were measured in arbitrary response units, and after the injection of each sample (120 sec), the HBS-EP buffer was passed over a sensor surface to monitor dissociation. The equilibrium dissociation constant (Kd) was derived to a fixing step-combined model.

[5] = system: B16F1 mouse melanoma cells; assay: Mouse melanoma (B16F1) animal model; type: in vivo, C57BL/6J mouse; details: 1 mg/kg per day peritoneally
Experimental: 100 μl each of 2×10^6 B16F1 mouse melanoma cells and 1×10^7 HCT116 human colorectal tumor cells were subcutaneously injected into the left side of a C57BL/6J mouse and a nude mouse. After a tumor volume reached at least 50 to 70 mm3 (taking about 7 days), saline or RLYE (SEQ ID NO: 2) (0.5 or 1.0 mg/kg) was peritoneally injected daily into the mice. A tumor size was two-dimensionally measured with calipers. A tumor volume (mm3) was calculated by a formula of […]. Following homogenization of tumor tissue with PBS and centrifugation (at 12,000×g for 5 min), a hemoglobin-containing supernatant was extracted to be used in analysis with Drabkin's reagent (Sigma). A hemoglobin level was measured by a cyanmethemoglobin method, and the amount of hemoglobin per gram of the tumor was calculated.

VEGFR-2 [6] = target: T1, VEGFR-2; assay: Western blot, VEGFR-2 phosphorylation in VEGF-A-treated HUVECs; type: cell-based; design: endogenous in cells; host or cells: HUVEC
Experimental: as §1

T1 sequence (P35968 20-1356): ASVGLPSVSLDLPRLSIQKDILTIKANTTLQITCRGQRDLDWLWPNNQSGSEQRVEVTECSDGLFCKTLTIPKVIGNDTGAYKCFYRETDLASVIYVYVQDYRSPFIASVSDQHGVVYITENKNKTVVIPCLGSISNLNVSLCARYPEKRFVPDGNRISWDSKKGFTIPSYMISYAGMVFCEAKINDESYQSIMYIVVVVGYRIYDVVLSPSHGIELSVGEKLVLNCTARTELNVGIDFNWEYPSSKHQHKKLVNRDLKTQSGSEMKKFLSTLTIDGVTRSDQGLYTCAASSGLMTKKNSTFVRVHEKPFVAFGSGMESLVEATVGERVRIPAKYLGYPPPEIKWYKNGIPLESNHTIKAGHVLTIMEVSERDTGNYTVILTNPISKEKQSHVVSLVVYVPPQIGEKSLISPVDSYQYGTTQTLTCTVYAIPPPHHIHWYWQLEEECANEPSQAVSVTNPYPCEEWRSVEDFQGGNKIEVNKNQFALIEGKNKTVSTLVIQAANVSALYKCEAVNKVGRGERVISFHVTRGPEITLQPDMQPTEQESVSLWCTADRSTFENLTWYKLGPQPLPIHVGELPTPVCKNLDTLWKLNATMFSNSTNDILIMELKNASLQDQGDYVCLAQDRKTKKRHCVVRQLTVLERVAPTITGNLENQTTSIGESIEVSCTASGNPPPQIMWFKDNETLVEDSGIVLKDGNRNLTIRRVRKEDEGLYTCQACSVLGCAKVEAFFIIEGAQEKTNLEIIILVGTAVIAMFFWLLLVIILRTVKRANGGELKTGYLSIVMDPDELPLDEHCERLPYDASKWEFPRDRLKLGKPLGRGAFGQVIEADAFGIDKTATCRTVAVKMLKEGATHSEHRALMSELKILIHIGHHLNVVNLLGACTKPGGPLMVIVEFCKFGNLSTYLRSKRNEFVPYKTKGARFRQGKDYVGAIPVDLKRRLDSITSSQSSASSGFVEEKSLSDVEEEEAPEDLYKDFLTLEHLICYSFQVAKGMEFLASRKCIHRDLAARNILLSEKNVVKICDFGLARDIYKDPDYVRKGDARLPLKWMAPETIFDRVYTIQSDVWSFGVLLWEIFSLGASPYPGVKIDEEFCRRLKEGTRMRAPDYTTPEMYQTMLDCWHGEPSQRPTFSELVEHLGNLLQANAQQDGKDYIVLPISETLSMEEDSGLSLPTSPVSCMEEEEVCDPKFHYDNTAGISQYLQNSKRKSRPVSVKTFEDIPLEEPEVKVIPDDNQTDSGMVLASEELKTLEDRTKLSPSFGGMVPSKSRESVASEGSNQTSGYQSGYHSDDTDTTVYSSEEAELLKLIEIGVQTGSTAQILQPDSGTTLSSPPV

CC(C)C[C@H](NC(=O)[C@@H](N)CCCNC(=N)N)C(=O)N[C@@H](Cc1ccc(O)cc1)C(=O)N[C@@H](CCC(=O)O)C(=O)O [RLYE] (H-RLYE-OH; N-terminus and C-terminus assumed)
inhibition of VEGF-induced tube formation (HUVECs [1]; HUVECs, peptide 0.15 nM, VEGF 10 ng/ml): effectively regulated; also recorded: much higher inhibitory effect on the tube formation than KLYD; also recorded: effectively inhibited
bFGF-induced tube formation of HUVECs (HUVECs [1]; bFGF stimulated): did not inhibit
P1GF-induced ERK phosphorylation (ERK; P1GF (ligand of VEGFR-1)): did not inhibit
inhibition of VEGF-induced ERK phosphorylation (ERK; VEGF / VEGF-A stimulated): inhibited; also recorded: more effectively inhibited; also recorded: highest inhibitory effect
VEGF-B-induced ERK phosphorylation (ERK; VEGF-B (ligand of VEGFR-1)): did not inhibit
inhibition of VEGF-induced NO production (NO production in HUVECs): effectively blocked; also recorded: effectively inhibited; also recorded: higher inhibitory effect than the control KLYD
VEGF-A-induced angiogenesis in Matrigel implant [2]: effectively inhibited
activation of p38 (p38): inhibited
phosphorylation of Src (Src): inhibited
phosphorylation of FAK (FAK): inhibited
phosphorylation of Akt (Akt): inhibited
binding to HUVEC surface (confocal microscope) (HUVECs [3]; pretreatment of VEGF-A): effectively blocked
binding to HUVEC surface (confocal microscope) (HUVECs [3]; without VEGF-A pretreatment): binds to a HUVEC surface
binding to rhVEGFR-2 (SPR) (VEGFR-2 [4]): effectively binds
tumor growth [5]: significantly decreased
tumor size [5]: significantly decreased
tumor weight [5]: significantly decreased
phosphorylation of VEGFR-2 (VEGFR-2 [6]): inhibits
